{
  "source": "patent US20240327364A1",
  "about": "“THERAPEUTIC TARGETING OF GPR68 TO INDUCE FERROPTOSIS” (University Of Maryland, Baltimore, priority 2023, published 2024)",
  "key": {"YANK1": {"biological_target": "T1, YANK1 (Homo sapiens, UniProt Q8WU08)", "T1 construct": "purchased DiscoveRx", "assay": "KinomeScan", "type": "binding", "settings": "read-out: % Control"}, "TRKB": {"biological_target": "T2, TRKB (Homo sapiens, UniProt Q16620)", "T2 construct": "purchased DiscoveRx (Fremont, CA)", "T2 sequence (Q16620 32-822)": "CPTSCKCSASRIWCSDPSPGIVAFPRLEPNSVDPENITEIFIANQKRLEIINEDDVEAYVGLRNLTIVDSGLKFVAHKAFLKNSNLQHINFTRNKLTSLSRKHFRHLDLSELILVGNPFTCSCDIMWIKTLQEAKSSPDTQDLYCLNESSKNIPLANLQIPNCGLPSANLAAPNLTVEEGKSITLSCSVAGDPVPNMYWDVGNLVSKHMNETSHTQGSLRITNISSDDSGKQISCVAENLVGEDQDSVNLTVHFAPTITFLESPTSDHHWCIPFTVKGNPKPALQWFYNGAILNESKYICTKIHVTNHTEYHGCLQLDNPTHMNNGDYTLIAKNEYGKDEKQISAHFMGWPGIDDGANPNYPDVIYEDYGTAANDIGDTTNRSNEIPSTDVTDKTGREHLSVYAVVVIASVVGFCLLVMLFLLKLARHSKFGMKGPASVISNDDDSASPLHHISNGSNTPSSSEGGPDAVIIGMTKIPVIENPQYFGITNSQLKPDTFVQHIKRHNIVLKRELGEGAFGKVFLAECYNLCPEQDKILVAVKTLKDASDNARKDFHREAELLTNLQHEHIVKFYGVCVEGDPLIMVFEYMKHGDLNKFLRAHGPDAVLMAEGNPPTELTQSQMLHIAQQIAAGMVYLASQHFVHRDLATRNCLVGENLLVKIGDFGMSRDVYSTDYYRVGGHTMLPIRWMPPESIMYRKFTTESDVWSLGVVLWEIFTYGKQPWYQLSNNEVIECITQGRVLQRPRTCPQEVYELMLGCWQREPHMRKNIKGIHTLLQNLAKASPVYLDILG", "assay": "KinomeScan", "type": "binding", "settings": "read-out: % Control"}, "HPK1": {"biological_target": "T3, HPK1 (Homo sapiens, UniProt Q92918)", "T3 construct": "purchased DiscoveRx (Fremont, CA)", "assay": "KinomeScan", "type": "binding", "settings": "read-out: % Control"}, "PIK3CA(H1047Y)": {"biological_target": "T4, PIK3CA(H1047Y) (Homo sapiens, UniProt P42336, H1047Y)", "T4 construct": "purchased DiscoveRx (Fremont, CA)", "T4 sequence (P42336 whole entry H1047Y)": "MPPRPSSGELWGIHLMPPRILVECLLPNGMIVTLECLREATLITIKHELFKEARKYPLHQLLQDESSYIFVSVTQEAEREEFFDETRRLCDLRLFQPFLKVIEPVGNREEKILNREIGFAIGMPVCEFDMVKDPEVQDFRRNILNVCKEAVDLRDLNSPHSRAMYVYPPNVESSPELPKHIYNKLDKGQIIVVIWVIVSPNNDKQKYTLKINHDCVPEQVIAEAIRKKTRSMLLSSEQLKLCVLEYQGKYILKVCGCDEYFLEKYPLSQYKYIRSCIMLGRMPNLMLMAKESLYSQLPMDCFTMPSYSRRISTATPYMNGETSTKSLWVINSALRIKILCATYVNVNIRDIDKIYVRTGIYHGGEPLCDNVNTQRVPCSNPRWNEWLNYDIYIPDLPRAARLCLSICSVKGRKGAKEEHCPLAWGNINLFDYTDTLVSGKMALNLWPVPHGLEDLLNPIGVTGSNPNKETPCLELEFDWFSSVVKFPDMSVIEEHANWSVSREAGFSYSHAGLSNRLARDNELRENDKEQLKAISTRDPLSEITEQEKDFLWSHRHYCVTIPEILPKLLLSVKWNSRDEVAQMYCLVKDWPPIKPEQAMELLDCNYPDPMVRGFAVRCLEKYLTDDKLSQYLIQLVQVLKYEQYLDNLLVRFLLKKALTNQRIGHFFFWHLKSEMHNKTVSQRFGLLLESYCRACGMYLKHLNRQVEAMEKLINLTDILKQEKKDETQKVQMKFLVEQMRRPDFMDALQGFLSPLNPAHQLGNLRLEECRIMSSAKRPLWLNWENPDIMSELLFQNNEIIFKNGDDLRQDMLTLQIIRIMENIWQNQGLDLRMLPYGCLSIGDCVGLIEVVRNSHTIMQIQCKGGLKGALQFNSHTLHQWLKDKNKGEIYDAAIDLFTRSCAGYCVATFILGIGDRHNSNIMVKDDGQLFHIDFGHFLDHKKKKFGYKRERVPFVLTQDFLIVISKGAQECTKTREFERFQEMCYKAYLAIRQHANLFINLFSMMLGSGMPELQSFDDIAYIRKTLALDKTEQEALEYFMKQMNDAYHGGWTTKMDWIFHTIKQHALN", "assay": "KinomeScan", "type": "binding", "settings": "read-out: % Control"}, "PIK3CA(Q546K)": {"biological_target": "T5, PIK3CA(Q546K) (Homo sapiens, UniProt P42336, Q546K)", "T5 construct": "purchased DiscoveRx (Fremont, CA)", "T5 sequence (P42336 whole entry Q546K)": "as the sequence (P42336 whole entry H1047Y) above, with Q546K, Y1047H counted along it", "assay": "KinomeScan", "type": "binding", "settings": "read-out: % Control"}, "V1B": {"biological_target": "T6, V1B (Homo sapiens, UniProt P47901)", "T6 construct": "host or cells: Chem-1 cells with Gα15", "assay": "GPCR Profiler", "type": "cell-based"}, "sst5": {"biological_target": "T7, sst5 (Homo sapiens, UniProt P35346)", "T7 construct": "host or cells: Chem-1 cells with Gα15", "assay": "GPCR Profiler", "type": "cell-based"}, "[1]": {"biological_target": "T8, ABL1(F317L)-nonphosphorylated (Homo sapiens, UniProt P00519, F317L)", "T8 construct": "purchased DiscoveRx", "T8 sequence (P00519 242-493 F317L limits assumed)": "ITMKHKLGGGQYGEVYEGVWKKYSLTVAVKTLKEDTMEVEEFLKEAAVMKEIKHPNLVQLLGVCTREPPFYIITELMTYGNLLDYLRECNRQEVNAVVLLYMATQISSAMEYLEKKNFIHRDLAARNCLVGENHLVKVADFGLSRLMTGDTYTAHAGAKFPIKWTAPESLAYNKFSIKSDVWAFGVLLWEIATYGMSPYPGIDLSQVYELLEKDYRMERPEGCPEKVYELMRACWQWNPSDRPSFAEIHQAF", "assay": "KinomeScan", "type": "binding", "settings": "read-out: % Control"}, "CSNK1E": {"biological_target": "CSNK1E (Homo sapiens, UniProt P49674)", "sequence (P49674 whole entry)": "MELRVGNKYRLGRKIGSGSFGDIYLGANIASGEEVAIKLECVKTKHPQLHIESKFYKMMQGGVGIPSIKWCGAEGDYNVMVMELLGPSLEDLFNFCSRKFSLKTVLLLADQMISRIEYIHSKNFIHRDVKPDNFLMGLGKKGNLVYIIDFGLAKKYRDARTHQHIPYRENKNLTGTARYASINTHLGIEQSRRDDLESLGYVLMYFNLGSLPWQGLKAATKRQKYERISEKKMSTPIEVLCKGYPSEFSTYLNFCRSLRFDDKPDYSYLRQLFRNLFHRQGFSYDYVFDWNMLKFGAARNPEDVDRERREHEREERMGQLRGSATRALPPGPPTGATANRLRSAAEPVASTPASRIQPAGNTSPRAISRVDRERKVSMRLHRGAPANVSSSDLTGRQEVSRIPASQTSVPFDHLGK", "assay": "KinomeScan", "type": "binding", "settings": "read-out: % Control"}, "EP3": {"biological_target": "T9, EP3 (Homo sapiens, UniProt P43115)", "T9 construct": "host or cells: Chem-1 cells expressing Gα15", "assay": "GPCR Profiler", "type": "cell-based"}, "LRRK2": {"biological_target": "T10, LRRK2 (Homo sapiens, UniProt Q5S007)", "T10 construct": "purchased DiscoveRx", "assay": "KinomeScan", "type": "binding", "settings": "read-out: % Control"}, "EGFR(L747-T751del, Sins)": {"biological_target": "T11, EGFR(L747-T751del, Sins) (Homo sapiens, UniProt P00533, DEL747-750/T751S)", "T11 construct": "purchased DiscoveRx (Fremont, CA), KinomeScan service", "assay": "KinomeScan", "type": "binding", "settings": "read-out: % Control"}, "KIT(V559D, V654A)": {"biological_target": "T12, KIT(V559D, V654A) (Homo sapiens, UniProt P10721, V559D/V654A)", "T12 construct": "purchased DiscoveRx", "assay": "KinomeScan", "type": "binding", "settings": "read-out: % Control"}, "PRKD1": {"biological_target": "T13, PRKD1 (Homo sapiens, UniProt Q15139)", "T13 construct": "purchased DiscoveRx (Fremont, CA)", "assay": "KinomeScan", "type": "binding", "settings": "read-out: % Control"}, "CXCR2": {"biological_target": "T14, CXCR2 (Homo sapiens, UniProt P25025)", "T14 construct": "host or cells: Chem-1 cells with Gα15", "assay": "GPCR Profiler", "type": "cell-based"}, "[2]": {"biological_target": "T15, TYK2(JH2domain-pseudokinase) (Homo sapiens, UniProt P29597)", "T15 construct": "TYK2(JH2domain-pseudokinase); purchased DiscoveRx", "T15 sequence (P29597 589-875 limits assumed)": "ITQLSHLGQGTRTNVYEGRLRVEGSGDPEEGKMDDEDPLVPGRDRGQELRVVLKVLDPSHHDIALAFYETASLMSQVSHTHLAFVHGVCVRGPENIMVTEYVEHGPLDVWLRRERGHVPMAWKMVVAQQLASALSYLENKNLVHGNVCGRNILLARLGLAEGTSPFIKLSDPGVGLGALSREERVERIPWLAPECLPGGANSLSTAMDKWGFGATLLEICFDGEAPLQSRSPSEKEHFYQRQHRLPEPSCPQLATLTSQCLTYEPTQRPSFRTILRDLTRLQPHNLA", "assay": "KinomeScan", "type": "binding", "settings": "read-out: % Control"}, "GPR68": {"biological_target": "GPR68 (Homo sapiens, UniProt Q15743)", "sequence (Q15743 whole entry)": "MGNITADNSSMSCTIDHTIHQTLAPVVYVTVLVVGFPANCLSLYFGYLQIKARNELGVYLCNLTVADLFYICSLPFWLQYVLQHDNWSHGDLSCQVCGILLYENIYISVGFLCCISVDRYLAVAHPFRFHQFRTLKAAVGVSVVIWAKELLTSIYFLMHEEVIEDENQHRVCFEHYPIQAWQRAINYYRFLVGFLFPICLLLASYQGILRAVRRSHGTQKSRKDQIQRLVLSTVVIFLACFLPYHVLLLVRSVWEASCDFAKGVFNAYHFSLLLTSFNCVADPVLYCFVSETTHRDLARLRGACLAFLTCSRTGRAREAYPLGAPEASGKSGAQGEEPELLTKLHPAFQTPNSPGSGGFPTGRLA", "assay": "GPCR Profiler", "type": "cell-based", "design": "host or cells: Chem-1 cells (Chem1-OGR1)"}, "GPR109A": {"biological_target": "T16, GPR109A (Homo sapiens, UniProt Q8TDS4)", "T16 construct": "host or cells: Chem-1 cells expressing Gα15", "assay": "GPCR Profiler", "type": "cell-based"}, "[3]": {"biological_target": "T17, EGFR(L747-S752del, P753S) (Homo sapiens, UniProt P00533, DEL747-752/P753S)", "T17 construct": "purchased DiscoveRx (Fremont, CA), KinomeScan service", "T17 sequence (P00533 with tags, fused parts or gaps DEL747-752/P753S)": "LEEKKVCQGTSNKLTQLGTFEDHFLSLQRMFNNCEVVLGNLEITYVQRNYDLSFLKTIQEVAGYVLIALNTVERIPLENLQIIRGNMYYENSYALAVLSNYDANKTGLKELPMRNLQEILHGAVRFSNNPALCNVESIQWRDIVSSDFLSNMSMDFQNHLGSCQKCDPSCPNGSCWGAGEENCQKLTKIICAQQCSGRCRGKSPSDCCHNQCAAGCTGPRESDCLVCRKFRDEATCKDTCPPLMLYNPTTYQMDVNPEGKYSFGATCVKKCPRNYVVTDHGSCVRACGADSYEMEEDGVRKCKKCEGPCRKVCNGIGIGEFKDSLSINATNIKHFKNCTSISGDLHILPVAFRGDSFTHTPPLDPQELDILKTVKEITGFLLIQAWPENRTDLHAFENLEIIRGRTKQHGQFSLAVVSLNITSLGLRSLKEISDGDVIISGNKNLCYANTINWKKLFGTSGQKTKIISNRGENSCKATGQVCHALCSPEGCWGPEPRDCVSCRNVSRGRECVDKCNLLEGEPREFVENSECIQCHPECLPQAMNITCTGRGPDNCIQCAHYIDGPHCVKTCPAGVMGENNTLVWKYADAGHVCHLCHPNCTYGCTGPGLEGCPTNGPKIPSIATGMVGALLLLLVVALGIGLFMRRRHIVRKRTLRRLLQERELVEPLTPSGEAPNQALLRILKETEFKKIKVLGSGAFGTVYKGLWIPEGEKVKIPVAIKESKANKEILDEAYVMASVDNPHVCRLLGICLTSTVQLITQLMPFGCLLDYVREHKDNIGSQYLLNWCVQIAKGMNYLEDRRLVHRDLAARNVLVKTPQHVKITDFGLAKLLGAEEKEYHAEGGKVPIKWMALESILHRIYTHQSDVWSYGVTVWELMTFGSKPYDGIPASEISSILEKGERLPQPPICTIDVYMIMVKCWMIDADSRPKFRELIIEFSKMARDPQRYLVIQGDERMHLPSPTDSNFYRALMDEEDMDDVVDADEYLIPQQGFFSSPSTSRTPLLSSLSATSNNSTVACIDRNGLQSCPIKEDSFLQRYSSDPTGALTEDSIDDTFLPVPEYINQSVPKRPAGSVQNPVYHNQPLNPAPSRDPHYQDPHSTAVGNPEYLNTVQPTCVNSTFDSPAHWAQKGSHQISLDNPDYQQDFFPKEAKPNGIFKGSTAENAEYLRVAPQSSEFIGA", "assay": "KinomeScan", "type": "binding", "settings": "read-out: % Control"}, "CDK9": {"biological_target": "CDK9 (Homo sapiens, UniProt P50750)", "sequence (P50750 whole entry)": "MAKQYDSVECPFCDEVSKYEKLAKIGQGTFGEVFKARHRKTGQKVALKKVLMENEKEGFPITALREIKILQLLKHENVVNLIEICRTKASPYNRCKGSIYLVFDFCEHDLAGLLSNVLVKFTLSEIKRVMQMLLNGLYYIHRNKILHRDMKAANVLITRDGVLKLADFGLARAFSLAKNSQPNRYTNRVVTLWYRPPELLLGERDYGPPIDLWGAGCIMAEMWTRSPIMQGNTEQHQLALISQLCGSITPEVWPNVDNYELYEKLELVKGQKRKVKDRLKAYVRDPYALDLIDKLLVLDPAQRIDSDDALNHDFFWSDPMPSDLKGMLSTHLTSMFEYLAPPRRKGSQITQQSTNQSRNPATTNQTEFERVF", "assay": "KinomeScan", "type": "binding", "settings": "read-out: % Control"}, "PDX 08-387 cells": {"system": "PDX 08-387 cells", "assay": "Cell survival, OGM2 with TMZ", "type": "cell-based, human", "settings": "OGM2 and TMZ, cell killing", "experimental": "GBM neurospheres and low passage PDX models were plated in 96-well plates at 10,000 cells per well in 50 μL of neural stem cell media. The next day, the cells were treated with OGM2 compounds at the indicated concentrations, in triplicates, by adding an equal volume of medium containing 2× the final concentration of compound. Following 72 hours incubation under standard cell culture conditions, relative cell number was assessed using Cell Titer-Glo Luminescent Cell Viability Assay (Promega™) following the manufacturer's instructions. Luminescence was determined using a Cytation 5 reader and Gen5 software package (BioTek™). For U87 and U138 cell lines, one thousand cells were plated per well in a standard 96-well plate and allowed to attach for 24 hours before exposure to concentrations of vehicle, OGM2, or TMZ. Cells were treated for 72 hours and then stained with DAPI. A 10× magnification lens on a LionheartFX (BioTek™) was used to image the wells, and images were stitched together with Gen5 software (BioTek™). Automated nuclei counting was also done using the Gen5 software. Results reported as percent response relative to DMSO control. […]\nWhere appropriate, ANOVA, or student's T-test were conducted in PRISM. […] For drug interaction and therapeutic interaction, the coefficient of drug interaction (CDI) was calculated as follows: CDI=AB/(A×B). […]"}, "HKSA-induced ALI": {"system": "HKSA-induced ALI", "assay": "HKSA-induced acute lung injury", "type": "in vivo, C57Bl mice", "settings": "OGM2 40 mg/kg", "experimental": "FIG. 37A through FIG. 37D: OGM2 attenuates HKSA- and LPS-induced acute lung injury (ALI) in vivo. FIG. 37A: GPR68 mRNA is markedly elevated in lungs, heart and brain of HKSA-challenged (5×10^7/kg, i/n, 18 hr) C57Bl mice). FIG. 37B: LPS (0.7 mg/kg intratracheal) and […] ALI in mice markedly increases mRNA expression of GPR68, relative to GPR4, GPR65, and GPR132; *p<0.01 vs. vehicle; n=3."}},
  "data": [
    {"compound": "CCc1ccc2c(c1)C1(NN=C(c3cccc4ccccc34)S1)C(=O)N2", "note": "(centres unmarked) [OGM1, 5-ethyl-5′-naphthalen-1-ylspiro[1H-indole-3,2′-3H-1,3,4-thiadiazole]-2-one]", "values": [
      {"measurement": "remaining binding at 10 µM", "setting": "YANK1", "value": 100, "unit": "%"},
      {"measurement": "remaining binding at 10 µM", "setting": "TRKB", "value": 51, "unit": "%"},
      {"measurement": "remaining binding at 10 µM", "setting": "HPK1", "value": 100, "unit": "%"},
      {"measurement": "remaining binding at 10 µM", "setting": "PIK3CA(H1047Y)", "value": 59, "unit": "%"},
      {"measurement": "remaining binding at 10 µM", "setting": "PIK3CA(Q546K)", "value": 95, "unit": "%"},
      {"measurement": "Antagonism", "setting": "V1B; 10 uM", "value": "−2.8"},
      {"measurement": "Agonism", "setting": "V1B; 12.5 uM", "value": "−0.1"},
      {"measurement": "Antagonism", "setting": "sst5; 10 uM", "value": "−4"},
      {"measurement": "Agonism", "setting": "sst5; 12.5 uM", "value": "−0.3"},
      {"measurement": "remaining binding at 10 µM", "setting": "[1]", "value": 96, "unit": "%"},
      {"measurement": "remaining binding at 10 µM", "setting": "CSNK1E", "value": 91, "unit": "%"},
      {"measurement": "Antagonism", "setting": "EP3; 10 uM", "value": 6.3},
      {"measurement": "Agonism", "setting": "EP3; 12.5 uM", "value": 0.4},
      {"measurement": "remaining binding at 10 µM", "setting": "LRRK2", "value": 100, "unit": "%"},
      {"measurement": "remaining binding at 10 µM", "setting": "EGFR(L747-T751del, Sins)", "value": 100, "unit": "%"},
      {"measurement": "remaining binding at 10 µM", "setting": "KIT(V559D, V654A)", "value": 100, "unit": "%"},
      {"measurement": "remaining binding at 10 µM", "setting": "PRKD1", "value": 100, "unit": "%"},
      {"measurement": "Antagonism", "setting": "CXCR2; 10 uM", "value": "−3.1"},
      {"measurement": "Agonism", "setting": "CXCR2; 12.5 uM", "value": 0.5},
      {"measurement": "remaining binding at 10 µM", "setting": "[2]", "value": 100, "unit": "%"},
      {"measurement": "Antagonism", "setting": "GPR68; 10 uM", "value": 70.8},
      {"measurement": "Agonism", "setting": "GPR68; 12.5 uM", "value": "−7.6"},
      {"measurement": "Antagonism", "setting": "GPR109A; 10 uM", "value": 20.3},
      {"measurement": "Agonism", "setting": "GPR109A; 12.5 uM", "value": "−0.2"},
      {"measurement": "remaining binding at 10 µM", "setting": "[3]", "value": 99, "unit": "%"},
      {"measurement": "remaining binding at 10 µM", "setting": "CDK9", "value": 98, "unit": "%"}
    ]},
    {"compound": "CCc1ccc2c(c1)C1(NN=C(c3ccccc3)S1)C(=O)N2", "note": "(centres unmarked) [OGM2]", "values": [
      {"measurement": "coefficient of drug interaction (CDI)", "setting": "PDX 08-387 cells", "value": "< 0.7"},
      {"measurement": "lung vascular leak (Evans blue-labeled albumin)", "setting": "HKSA-induced ALI; 3 hr post administration", "value": "significantly attenuated"},
      {"measurement": "inflammatory cytokine (TNFα, IL-6, KC, IL-1β) transcripts in the lungs", "setting": "HKSA-induced ALI; i.p.", "value": "significantly attenuated induction"}
    ]}
  ]
}
